pKi: −log10 of the molar value.

Sequence of ATR kinase (full-length ATR) (Q13535 whole entry): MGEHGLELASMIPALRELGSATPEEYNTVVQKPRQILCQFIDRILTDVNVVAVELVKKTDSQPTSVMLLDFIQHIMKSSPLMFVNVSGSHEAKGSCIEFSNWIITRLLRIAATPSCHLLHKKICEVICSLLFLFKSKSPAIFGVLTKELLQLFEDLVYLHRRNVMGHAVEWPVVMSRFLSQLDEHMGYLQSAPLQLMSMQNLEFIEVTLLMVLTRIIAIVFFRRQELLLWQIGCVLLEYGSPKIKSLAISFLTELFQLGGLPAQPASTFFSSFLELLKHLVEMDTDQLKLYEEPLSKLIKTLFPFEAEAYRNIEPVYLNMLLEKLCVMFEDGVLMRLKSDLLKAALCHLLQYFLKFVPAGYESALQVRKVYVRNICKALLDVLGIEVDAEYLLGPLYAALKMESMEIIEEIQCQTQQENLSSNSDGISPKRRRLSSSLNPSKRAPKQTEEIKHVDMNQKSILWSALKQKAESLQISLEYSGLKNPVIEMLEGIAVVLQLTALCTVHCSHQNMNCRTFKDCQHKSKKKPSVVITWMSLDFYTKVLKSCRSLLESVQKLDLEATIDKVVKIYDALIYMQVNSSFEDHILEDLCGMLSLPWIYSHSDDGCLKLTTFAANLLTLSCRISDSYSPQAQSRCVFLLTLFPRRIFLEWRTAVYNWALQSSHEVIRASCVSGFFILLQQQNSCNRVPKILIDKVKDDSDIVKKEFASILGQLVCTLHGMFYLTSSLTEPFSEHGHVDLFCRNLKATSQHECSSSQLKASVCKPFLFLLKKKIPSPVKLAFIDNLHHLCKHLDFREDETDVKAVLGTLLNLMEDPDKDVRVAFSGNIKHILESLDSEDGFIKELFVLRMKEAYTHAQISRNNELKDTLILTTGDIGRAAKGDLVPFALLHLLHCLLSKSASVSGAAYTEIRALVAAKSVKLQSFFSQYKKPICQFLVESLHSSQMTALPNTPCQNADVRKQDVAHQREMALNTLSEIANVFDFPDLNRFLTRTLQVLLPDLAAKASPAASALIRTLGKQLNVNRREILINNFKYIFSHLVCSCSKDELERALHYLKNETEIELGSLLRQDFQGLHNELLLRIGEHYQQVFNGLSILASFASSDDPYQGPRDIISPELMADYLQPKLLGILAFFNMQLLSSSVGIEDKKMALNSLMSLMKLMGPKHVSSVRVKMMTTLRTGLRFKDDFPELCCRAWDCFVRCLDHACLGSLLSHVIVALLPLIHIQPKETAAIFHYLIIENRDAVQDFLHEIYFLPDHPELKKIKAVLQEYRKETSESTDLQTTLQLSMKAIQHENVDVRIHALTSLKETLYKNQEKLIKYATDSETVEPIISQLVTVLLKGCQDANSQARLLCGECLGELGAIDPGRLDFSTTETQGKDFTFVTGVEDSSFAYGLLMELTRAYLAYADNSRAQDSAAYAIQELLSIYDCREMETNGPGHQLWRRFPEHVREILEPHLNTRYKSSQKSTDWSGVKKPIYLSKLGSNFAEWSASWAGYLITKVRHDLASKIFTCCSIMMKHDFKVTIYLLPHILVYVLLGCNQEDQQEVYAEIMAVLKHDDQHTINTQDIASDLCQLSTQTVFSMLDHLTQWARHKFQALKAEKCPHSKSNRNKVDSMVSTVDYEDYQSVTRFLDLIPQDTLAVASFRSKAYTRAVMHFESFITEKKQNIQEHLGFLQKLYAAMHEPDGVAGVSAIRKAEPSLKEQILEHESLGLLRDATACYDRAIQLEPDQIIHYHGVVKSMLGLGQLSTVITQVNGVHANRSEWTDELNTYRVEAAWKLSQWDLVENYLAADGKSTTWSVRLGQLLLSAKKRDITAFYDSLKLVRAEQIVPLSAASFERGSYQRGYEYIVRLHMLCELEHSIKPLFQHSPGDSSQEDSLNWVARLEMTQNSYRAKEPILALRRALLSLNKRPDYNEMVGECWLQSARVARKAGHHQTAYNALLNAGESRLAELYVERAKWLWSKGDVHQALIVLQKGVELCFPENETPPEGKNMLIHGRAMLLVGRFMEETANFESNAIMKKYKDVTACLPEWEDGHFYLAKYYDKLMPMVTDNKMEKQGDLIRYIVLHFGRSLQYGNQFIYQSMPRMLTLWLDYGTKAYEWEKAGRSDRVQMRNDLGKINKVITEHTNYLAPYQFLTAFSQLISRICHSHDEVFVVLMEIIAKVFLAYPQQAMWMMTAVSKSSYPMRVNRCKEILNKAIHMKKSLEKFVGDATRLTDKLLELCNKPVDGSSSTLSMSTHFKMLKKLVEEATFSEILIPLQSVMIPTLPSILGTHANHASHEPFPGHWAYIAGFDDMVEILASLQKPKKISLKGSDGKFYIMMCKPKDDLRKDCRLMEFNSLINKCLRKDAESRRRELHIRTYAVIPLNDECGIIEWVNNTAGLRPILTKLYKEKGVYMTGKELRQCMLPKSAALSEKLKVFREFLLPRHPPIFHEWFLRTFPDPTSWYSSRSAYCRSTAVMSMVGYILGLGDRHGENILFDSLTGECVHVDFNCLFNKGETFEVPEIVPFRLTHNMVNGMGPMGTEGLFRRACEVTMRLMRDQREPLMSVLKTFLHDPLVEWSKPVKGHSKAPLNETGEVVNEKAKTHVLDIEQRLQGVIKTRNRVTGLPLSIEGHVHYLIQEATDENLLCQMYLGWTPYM

One assay concerns the target ATR kinase (full-length ATR) (Homo sapiens (Human), UniProt Q13535). The assay can be described thus: ATR inhibition assay (radioactive-phosphate incorporation). It counts as biochemical.
Conditions: not given
Put shortly:
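Ki(app) was fitted by non-linear regression to background-corrected initial rates. Full-length ATR (5 nM) phosphorylated 800 μM peptide using 10 μM [γ-33P]ATP at 25° C in Tris/HCl pH 7.5 buffer with MgCl2, DTT and 7% DMSO. After 10-minute compound pre-incubation and 24-hour reaction, phosphocellulose filters were scintillation counted.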
Consider `CNCCc1cnn(-c2ccncc2NC(=O)c2c(N)nn3cc(F)cnc23)c1` [I-N-8, 2-amino-6-fluoro-N-(4-(4-(2-(methylamino)ethyl)-1H-pyrazol-1-yl)pyridin-3-yl)pyrazolo[1,5-a]pyrimidine-3-carboxamide], for which the pKi was 5.30 to 6.00.

As to `CN(C)[C@H]1CCN(c2ccncc2NC(=O)c2c(N)nn3cc(Cl)cnc23)C[C@@H]1O` [I-N-35, 2-amino-6-chloro-N-(4-((3S,4S)-4-(dimethylamino)-3-hydroxypiperidin-1-yl)pyridin-3-yl)pyrazolo[1,5-a]pyrimidine-3-carboxamide], the pKi is 5.30 to 6.00.

`CN1CCN(C(=O)C2CCN(c3c(F)cncc3NC(=O)c3c(N)nn4cc(F)cnc34)C2)CC1` (centres unmarked) [I-N-191, 2-amino-6-fluoro-N-(5-fluoro-4-(3-(4-methylpiperazine-1-carbonyl)pyrrolidin-1-yl)pyridin-3-yl)pyrazolo[1,5-a]pyrimidine-3-carboxamide]: the pKi was 5.30 to 6.00.

The assay is the same for the next values; noted with them: Ki(app), 5 nM full-length ATR, 10 μM ATP, 25° C.
Consider `Nc1nn2cc(F)cnc2c1C(=O)Nc1cncc(F)c1N1CCC(C(=O)N2CC(N3CCCC3)C2)CC1` [I-G-43, 2-amino-6-fluoro-N-(5-fluoro-4-(4-(3-(pyrrolidin-1-yl)azetidine-1-carbonyl)piperidin-1-yl)pyridin-3-yl)pyrazolo[1,5-a]pyrimidine-3-carboxamide], for which the pKi was 6.00 to 8.00.

Turning to `CN(C)C(=O)C1CN(c2ccncc2NC(=O)c2c(N)nn3cc(F)cnc23)CCO1` (centres unmarked) [I-N-234, 4-(3-(2-amino-6-fluoropyrazolo[1,5-a]pyrimidine-3-carboxamido)pyridin-4-yl)-N,N-dimethylmorpholine-2-carboxamide], the pKi was 6.00 to 8.00.

`Nc1nn2cc(Cl)cnc2c1C(=O)Nc1cnccc1OC1CCCNC1` (centres unmarked) [I-O-75, 2-amino-6-chloro-N-(4-(piperidin-3-yloxy)pyridin-3-yl)pyrazolo[1,5-a]pyrimidine-3-carboxamide]: the pKi is 6.00 to 8.00.

On to `Nc1nn2cc(F)cnc2c1C(=O)Nc1cncc(F)c1C1=CCN(C2COC2)CC1` [I-C-12, 2-amino-6-fluoro-N-(5-fluoro-1′-(oxetan-3-yl)-1′,2′,3′,6′-tetrahydro-[4,4′-bipyridin]-3-yl)pyrazolo[1,5-a]pyrimidine-3-carboxamide], for which the pKi was 6.00 to 8.00.

On to `COC(=O)[C@H]1CC[C@H](Oc2ccncc2NC(=O)c2c(N)nn3cc(F)cnc23)CC1` [I-O-13, (1r,4)-methyl 4-((3-(2-amino-6-fluoropyrazolo[1,5-a]pyrimidine-3-carboxamido)pyridin-4-yl)oxy)cyclohexanecarboxylate], for which the pKi is 6.00 to 8.00.

Regarding `Cc1ncn(-c2ccncc2NC(=O)c2c(N)nn3cc(F)cnc23)c1C` [I-N-269, 2-amino-N-(4-(4,5-dimethyl-1H-imidazol-1-yl)pyridin-3-yl)-6-fluoropyrazolo[1,5-a]pyrimidine-3-carboxamide], the negative logarithm of the Ki (pKi) was 6.00 to 8.00.

Take `Nc1nn2cc(F)cnc2c1C(=O)Nc1cncc(F)c1N1CCC(c2nccs2)CC1` [I-N-184, 2-amino-6-fluoro-N-(5-fluoro-4-(4-(thiazol-2-yl)piperidin-1-yl)pyridin-3-yl)pyrazolo[1,5-a]pyrimidine-3-carboxamide]: the pKi was 6.00 to 8.00.

In the case of `CN1C(=O)CCC12CCN(c1ccncc1NC(=O)c1c(N)nn3cc(F)cnc13)CC2` [I-N-235, 2-amino-6-fluoro-N-(4-(1-methyl-2-oxo-1,8-diazaspiro[4.5]decan-8-yl)pyridin-3-yl)pyrazolo[1,5-a]pyrimidine-3-carboxamide], the pKi is 6.00 to 8.00.

`COC1CCN(c2ccncc2NC(=O)c2c(N)nn3cc(Cl)cnc23)CC1` [I-N-73, 2-amino-6-chloro-N-(4-(4-methoxypiperidin-1-yl)pyridin-3-yl)pyrazolo[1,5-a]pyrimidine-3-carboxamide]: the negative logarithm of the Ki (pKi) is 6.00 to 8.00.

As for `Nc1nn2cc(F)cnc2c1C(=O)Nc1cncc(F)c1N1CCC(C(=O)N2CCN(C3CCC3)CC2)CC1` [I-G-35, 2-amino-N-(4-(4-(4-cyclobutylpiperazine-1-carbonyl)piperidin-1-yl)-5-fluoropyridin-3-yl)-6-fluoropyrazolo[1,5-a]pyrimidine-3-carboxamide], the pKi is 6.00 to 8.00.

As to `CN(C)CC1CCN(c2ccncc2NC(=O)c2c(N)nn3cc(F)cnc23)CC1` [I-N-267, 2-amino-N-(4-(4-((dimethylamino)methyl)piperidin-1-yl)pyridin-3-yl)-6-fluoropyrazolo[1,5-a]pyrimidine-3-carboxamide], the pKi was 6.00 to 8.00.

Take `Nc1nn2cc(F)cnc2c1C(=O)Nc1cnccc1-n1cnc(C(F)(F)F)c1` [I-N-27, 2-amino-6-fluoro-N-(4-(4-(trifluoromethyl)-1H-imidazol-1-yl)pyridin-3-yl)pyrazolo[1,5-a]pyrimidine-3-carboxamide]: the pKi is 6.00 to 8.00.

For the compound `Nc1nn2cc(F)cnc2c1C(=O)Nc1cnccc1N1CCC2(CC1)COC2` [I-N-226, N-(4-(2-oxa-7-azaspiro[3.5]nonan-7-yl)pyridin-3-yl)-2-amino-6-fluoropyrazolo[1,5-a]pyrimidine-3-carboxamide], the negative logarithm of the Ki (pKi) was 6.00 to 8.00.

With `Nc1nn2cc(F)cnc2c1C(=O)Nc1cnccc1N1CCN(C2CC2)CC1` [I-N-33, 2-amino-N-(4-(4-cyclopropylpiperazin-1-yl)pyridin-3-yl)-6-fluoropyrazolo[1,5-a]pyrimidine-3-carboxamide], the negative-log Ki (pKi) is 6.00 to 8.00.

With `Cc1cncc(NC(=O)c2c(N)nn3cc(F)cnc23)c1N1CCC(C(=O)N2CCNCC2)CC1` [I-G-56, 2-amino-6-fluoro-N-(5-methyl-4-(4-(piperazine-1-carbonyl)piperidin-1-yl)pyridin-3-yl)pyrazolo[1,5-a]pyrimidine-3-carboxamide], the pKi is 6.00 to 8.00.

Take `Nc1nn2cc(F)cnc2c1C(=O)Nc1cncc(Cl)c1N1CCC(C(=O)N2CCNCC2)CC1` [I-G-48, 2-amino-N-(5-chloro-4-(4-(piperazine-1-carbonyl)piperidin-1-yl)pyridin-3-yl)-6-fluoropyrazolo[1,5-a]pyrimidine-3-carboxamide]: the pKi is 6.00 to 8.00.

For the compound `CN1CCN(CC2CCN(c3c(F)cncc3NC(=O)c3c(N)nn4cc(C5(C#N)CC5)cnc34)CC2)CC1` [I-N-192, 2-amino-6-(1-cyanocyclopropyl)-N-(5-fluoro-4-(4-((4-methylpiperazin-1-yl)methyl)piperidin-1-yl)pyridin-3-yl)pyrazolo[1,5-a]pyrimidine-3-carboxamide], the negative-log Ki (pKi) was 6.00 to 8.00.

As to `Nc1nn2cc(F)cnc2c1C(=O)Nc1cnccc1-c1ccc(C(=O)N2CCC(N3CCC3)CC2)nc1` [I-C-54, 2-amino-N-(6-(4-(azetidin-1-yl)piperidine-1-carbonyl)-[3,4′-bipyridin]-3′-yl)-6-fluoropyrazolo[1,5-a]pyrimidine-3-carboxamide], the pKi is 6.00 to 8.00.

Consider `Nc1nn2cc(F)cnc2c1C(=O)Nc1cnccc1N1CCN2C(=O)CC[C@@H]2C1` [I-N-258, (R)-2-amino-6-fluoro-N-(4-(6-oxohexahydropyrrolo[1,2-a]pyrazin-2(1H)-yl)pyridin-3-yl)pyrazolo[1,5-a]pyrimidine-3-carboxamide], for which the pKi was 6.00 to 8.00.

`Nc1nn2cc(F)cnc2c1C(=O)Nc1cnccc1C1CC1` [I-C-42, 2-amino-N-(4-cyclopropylpyridin-3-yl)-6-fluoropyrazolo[1,5-a]pyrimidine-3-carboxamide]: the pKi was 6.00 to 8.00.

Consider `CC(C)N1CCN(c2ccncc2NC(=O)c2c(N)nn3cc(F)cnc23)CC1` [I-N-4, 2-amino-6-fluoro-N-(4-(4-isopropylpiperazin-1-yl)pyridin-3-yl)pyrazolo[1,5-a]pyrimidine-3-carboxamide], for which the negative-log Ki (pKi) is 6.00 to 8.00.

With `Nc1nn2cc(F)cnc2c1C(=O)Nc1cnccc1N1CCC(C(=O)N2CC(F)C2)CC1` [I-G-82, 2-amino-6-fluoro-N-(4-(4-(3-fluoroazetidine-1-carbonyl)piperidin-1-yl)pyridin-3-yl)pyrazolo[1,5-a]pyrimidine-3-carboxamide], the pKi was 6.00 to 8.00.

On to `Cc1cccnc1-c1ccncc1NC(=O)c1c(N)nn2cc(F)cnc12` [I-C-36, 2-amino-6-fluoro-N-(3-methyl-[2,4′-bipyridin]-3′-yl)pyrazolo[1,5-a]pyrimidine-3-carboxamide], for which the pKi is 6.00 to 8.00.

Consider `CN1CCC[C@H]1C(=O)N1CCN(c2c(F)cncc2NC(=O)c2c(N)nn3cc(F)cnc23)CC1` [I-N-157, (S)-2-amino-6-fluoro-N-(5-fluoro-4-(4-(1-methylpyrrolidine-2-carbonyl)piperazin-1-yl)pyridin-3-yl)pyrazolo[1,5-a]pyrimidine-3-carboxamide], for which the negative logarithm of the Ki (pKi) was 6.00 to 8.00.

Turning to `N#CCc1cnc2c(C(=O)Nc3cnccc3OCCCO)c(N)nn2c1` [I-O-40, 2-amino-6-(cyanomethyl)-N-(4-(3-hydroxypropoxy)pyridin-3-yl)pyrazolo[1,5-a]pyrimidine-3-carboxamide], the pKi was above 8.00.

For the compound `Nc1nn2cc(Cl)cnc2c1C(=O)Nc1cnccc1N1CCNC(C(F)(F)F)C1` (centres unmarked) [I-N-70, 2-amino-6-chloro-N-(4-(3-(trifluoromethyl)piperazin-1-yl)pyridin-3-yl)pyrazolo[1,5-a]pyrimidine-3-carboxamide], the pKi was 6.00 to 8.00.

With `Nc1nn2cc(Cl)cnc2c1C(=O)Nc1cnccc1OCCO` [I-O-66, 2-amino-6-chloro-N-(4-(2-hydroxyethoxy)pyridin-3-yl)pyrazolo[1,5-a]pyrimidine-3-carboxamide], the pKi is 6.00 to 8.00.

As to `Nc1nn2cc(Cl)cnc2c1C(=O)Nc1cnccc1N1CC[S+]([O-])CC1` [I-N-68, 2-amino-6-chloro-N-(4-(1-oxidothiomorpholino)pyridin-3-yl)pyrazolo[1,5-a]pyrimidine-3-carboxamide], the pKi was 6.00 to 8.00.

Turning to `Nc1nn2cc(F)cnc2c1C(=O)Nc1cncc(F)c1N1CCC(C(=O)NCCN2CCC2)CC1` [I-G-42, 2-amino-N-(4-(4-((2-(azetidin-1-yl)ethyl)carbamoyl)piperidin-1-yl)-5-fluoropyridin-3-yl)-6-fluoropyrazolo[1,5-a]pyrimidine-3-carboxamide], the pKi is 6.00 to 8.00.

The values are drawn from US10392391B2 (Vertex Pharmaceuticals Incorporated, priority 2012, dated 2019).
